Experiments:
[1] = tested on: human non-small cell lung cancer cells NCI-H1975; test: Xenograft tumor model, NCI-H1975; format: in vivo, mouse; conditions: oral gavage
Experimental: Expand human glioblastoma cells U87MG and human renal carcinoma cells 786-O, in culture, harvest and inject subcutaneously onto the rear flank of athymic nude mice. Expand human non-small cell lung cancer cells NCI-H1975 in culture, harvest and inject subcutaneously onto the rear flank of CD-1 nu/nu mice. Prepare test compound in an appropriate vehicle and administer by oral gavage when tumors are established (7-21 days after implant). Tumor response is determined by tumor volume measurement performed twice a week during the course of treatment. Body weight is taken as a general measurement of toxicity.

[2] = tested on: RXF 1220 human tumor xenograft cells; test: Oncotest tumor clonogenic assay, RXF 1220; format: cell-based; conditions: colony formation, Renal RXF 1220, hypernephroma, pd, read-out: Absolute IC50
HT-1080 = test: Cell proliferation assay (CellTiter-Glo), HT-1080; format: cell-based; conditions: Homo sapiens, HT-1080, 72 h
Experimental: Plate cells in a 96-well plate at 2000 cells/well in 100 μL of cell specific medium (for U87MG use DMEM, 10% FBS, 25 mM 4-(2-hydroxyethyl)-1-piperazineethanesulfonic acid (HEPES), 1.0 mM sodium pyruvate, and 0.1 mM Non Essential Amino Acids (ATCC Cat.#30-2002); for HT1080 use Eagle's MEM, 10% FBS (ATCC Cat.#30-2003); for H1975, A2780, SJSA-1 and 786-O use RPMI 1640, 10% FBS (ATCC Cat.#30-2001); for A204 use McCoy's 5A, 10% FBS (ATCC Cat.#30-2007) except in column 1 use medium only as the blank control. Incubate the plates overnight at 37° C. and 5% CO2. On the next day, prepare compound stocks at 1 mM in DMSO and serially dilute in DMSO in a 96-well round bottom polypropylene plate. Assay compounds at 10 concentrations in duplicate, 4 compounds per plate.
Transfer 4 μL of the DMSO serial dilutions to a 96 well plate and add 196 μL of culture medium to create a 10× stock for dosing. Gently transfer 11 μL of each dosing stock to the corresponding well of the cell plate resulting in a 0.2% DMSO concentration and a 111 μL final volume. […]
Prepared the CellTiter-Glo reagent (Promega, Cat: G7571) and add 100 µL to each well after the incubation is complete, homogenize the cells by mixing on an orbital shaker for 2 min and then incubate at RT for 10 min to allow the luminescent signal to stabilize. Record the luminescent raw data with a Wallac Victor V plate reader. […]

[3] = tested on: MEXF 989 human tumor xenograft cells; test: Oncotest tumor clonogenic assay, MEXF 989; format: cell-based; conditions: colony formation, Melanoma MEXF 989, amelanotic melanoma, md, read-out: Absolute IC50
pS240/244 S6RP = test: In vivo target inhibition in U87MG tumors, pS240/244 S6RP; conditions: Mus musculus, U-87 MG; for inhibition at 0.5 mg/kg: 0.5 mg/kg oral; for inhibition at 1.5 mg/kg: 1.5 mg/kg oral; for inhibition at 3 mg/kg: 3 mg/kg oral; for inhibition at 6 mg/kg: 6 mg/kg oral; for inhibition at 10 mg/kg: 10 mg/kg oral; for inhibition at 12 mg/kg: 12 mg/kg oral
Experimental: Implant U87MG human glioblastoma cells (5×10^6) subcutaneously into the flank of athymic nude mice in 0.2 mL of matrigel. Ten days post-implantation, dose mice orally according to a time course, single dose/single time point, or dose response protocol for the determination of TMED50 (threshold minimum effective dose). Flash freeze tumors at harvest and collect blood for the determination of parent compound plasma exposure and the calculation of TMEC50 (threshold minimum effective concentration) in the case of dose response studies. Homogenize tumors in 500 μL of XY Lysis Buffer (10 μg/mL Leupeptin, 10 μg/mL Trypsin-Chymotrypsin Inhibitor, 10 μg/mL Tosyl phenyl-alanyl chloromethyl ketone, 10 μg/mL Aprotinin, 60 mM Beta-Glycerol Phosphate, 1% Triton X100, 25 mM Tris pH 7.5, 2.5 mM Pyrophosphate, 150 mM NaCl, 2 mM p-tosyl-L-arginine methyl ester, 15 mM para-nitrophenyl phosphate, 5 mM benzamidine, 1 mM sodium vanadate, 10 mM sodium fluoride, 50 μg/mL phenyl-methane sulfonyl fluoride, 1 mM 1,4-dithiothreitol (DTT), 15 mM EDTA pH 8.0, 5 mM EGTA pH 8.0, 1 μM Microcystin, 1 μM Okadaic Acid, and 1 Roche Complete protease inhibitor mini-tablet per 10 mL) using RNase Free Pellet Pestle (Kimble-Kontes). Aliquot lysates and either assay immediately or store at −80° C. for later testing. Use the multiplex format of Meso Scale Discovery (Gaithersburg, Md.) ELISA technology and measure in vivo target inhibition of PI3K and mTOR to assess effects on phosphorylation of the threonine 308 site of AKT, a downstream effector of PI3K; phosphorylation on the threonine 389 site of p70 S6K and on the serine 240/244 site of S6RP, downstream effectors of mTORC1; phosphorylation of the serine 473 site of AKT, a downstream effector of mTORC2. Add 20 μg of lysate to carbon electrode containing 96-well plates pre-spotted with the appropriate capture antibodies. Probe the protein of interest using a ruthenium labeled detection antibody. Pass current over the electrode in the presence of read buffer containing the co-reactant TPA, and quantitate and record the light generated by electro-chemiluminescence with the MSD Sector 6000 instrument. Calculate percent inhibitions relative to the vehicle control group and perform ANOVA analysis using the JMP software package for the determination of statistical significance.

## CO[C@@H](C)Cn1c(=O)n(C)c2cnc3ccc(-c4cncc(C(C)(C)O)c4)cc3c21 [Example 1, 8-[5-(1-Hydroxy-1-methylethyl)pyridin-3-yl]-1-[(2S)-2-methoxypropyl]-3-methyl-1,3-dihydro-2H-imidazo[4,5-c]quinolin-2-one]
[1]; H1975, 3 mg/kg BID
  % TGI: 13.8%
[1]; H1975, 6 mg/kg BID
  % TGI: 26.9%
[1]; H1975, 10 mg/kg BID
  % TGI: 62.7%
[2]
  IC50: 191 nM
HT-1080
  IC50: 72 nM
[3]
  IC50: 185 nM
pS240/244 S6RP; 0.5 hr post dose
  inhibition at 0.5 mg/kg: 9%
  inhibition at 1.5 mg/kg: 4%
  inhibition at 3 mg/kg: 9%
  inhibition at 6 mg/kg: 26%
  inhibition at 10 mg/kg: -4%
  inhibition at 12 mg/kg: 55%
pS240/244 S6RP; 4 hr post dose
  inhibition at 0.5 mg/kg: 5%
  inhibition at 1.5 mg/kg: 12%
  inhibition at 3 mg/kg: 37%
  inhibition at 6 mg/kg: 58%
  inhibition at 10 mg/kg: 95%
  inhibition at 12 mg/kg: 97%
pS240/244 S6RP; 0.25 hr post dose
  inhibition at 3 mg/kg: -11%
  inhibition at 6 mg/kg: 7%
pS240/244 S6RP; 1 hr post dose
  inhibition at 3 mg/kg: 51%
  inhibition at 6 mg/kg: 66%
  inhibition at 10 mg/kg: 69%
pS240/244 S6RP; 3 hr post dose
  inhibition at 3 mg/kg: 64%
pS240/244 S6RP; 2 hr post dose
  inhibition at 6 mg/kg: 83%
  inhibition at 10 mg/kg: 89%
pS240/244 S6RP; 6 hr post dose
  inhibition at 6 mg/kg: 55%
pS240/244 S6RP; 12 hr post dose
  inhibition at 6 mg/kg: -35%
pS240/244 S6RP; 8 hr post dose
  inhibition at 10 mg/kg: 16%

— patent publication US8658668B2, “PI3 kinase/mTOR dual inhibitor” (Eli Lilly and Company, priority 2011, dated 2014)
